Assay results: article PMC2394487, “Improved radiotracing of oxytocin receptor-expressing tumours using the new [^111In]-DOTA-Lys^8-deamino-vasotocin analogue” (British Journal of Cancer, 2003)
Entries after “also recorded” stand apart in the source; their conditions may differ. Positions of bridges follow the written chain, without caps; N, C: chain ends. Non-standard residues stand in square brackets, D forms with d. Residues, ends and D or L forms follow the SMILES beside them. *: point of attachment. DOTA = O=C(O)CN1CCN(CC(=O)O)CCN(CC(=O)*)CCN(CC(=O)O)CC1; Mpa = O=C(O)CCS

Assays:
human OTR [1] = molecular target: T1, human OTR (Homo sapiens, UniProt P30559); test: [111In]-DOTA-dLVT saturation binding assay, membranes of transfected COS7 cells
T1 construct: expressed in transfected cells; host or cells: COS7 (monkey kidney), transient electroporation
T1 sequence (P30559 1-389): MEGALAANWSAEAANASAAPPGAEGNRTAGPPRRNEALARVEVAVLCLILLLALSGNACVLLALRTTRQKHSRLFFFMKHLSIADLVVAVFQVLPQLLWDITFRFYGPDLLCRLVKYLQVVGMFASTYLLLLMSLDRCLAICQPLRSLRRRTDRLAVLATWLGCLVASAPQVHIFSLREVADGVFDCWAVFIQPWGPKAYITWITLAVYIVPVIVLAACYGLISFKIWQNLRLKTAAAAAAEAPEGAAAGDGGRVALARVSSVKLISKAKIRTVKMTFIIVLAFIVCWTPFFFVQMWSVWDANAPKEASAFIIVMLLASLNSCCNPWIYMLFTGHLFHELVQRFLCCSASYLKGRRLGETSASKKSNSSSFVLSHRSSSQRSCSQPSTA
Method: (§1) Figure 3 Binding of LVT-derived peptides to human OT/AVP receptor subtypes. (A) Comparison of OT and DOTA-dLVT affinity for the human OTR. Competition experiments were performed using membrane preparations of COS7 cells transiently transfected with the wild-type OTR. [^3H]-OT was used at a concentration of 1–2 nM, and nonspecific binding was determined in the presence of […] OT. Data are expressed as the percentage of bound [^3H]-OT in the absence of cold competitor. The curves are representative of three independent assays performed in triplicate. (B) [^111In]-DOTA-dLVT saturation binding assay. The affinity of [^111In]-DOTA-dLVT for the human OTR was measured by incubating increasing amounts of labelled peptide to membrane preparations of COS7 cells transiently transfected with the wild-type OTR. The curve is representative of two independent assays performed in triplicate. […] The membrane preparations of OTR-expressing cells were incubated in the presence of a constant amount of ^3[H]OT (1–2 nM), and nonspecific binding was determined in the presence of 100 μM OT. The membrane preparations of cells expressing V1a, V1b and V2 receptors were incubated in the presence of a constant amount of ^3[H]AVP (2–4 nM), and nonspecific binding was determined in the presence of 100 μM AVP. The data are expressed as percentages of bound [^3H]-ligand in the absence of cold competitor. […]

OTR+ TS/A tumours = test: in vivo; parameters: species or system Balb/c mice; conditions: mouse; for tissue to tissue ratio at 5 h: female, Balb/c, iv, 74 kBq, total radioactivity
Method: To determine the amount and specificity of the receptor-mediated uptake of [^111In]-DOTA-dLVT in tumours, we used an experimental model of OTR+ TS/A tumours growing in Balb/c mice. A total of 10 female Balb/c mice weighing 25 g were subcutaneously injected with TS/A mammary carcinoma (0.3 × 10^6 in 0.2 ml of medium). After 20 days, when the growing tumour had reached about 2 cm in diameter, five mice were intravenously administered 50 μg of cold OT 30 min before the radiotracer and the other five were not. Mice were injected in the tail vein with [^111In]-DOTA-dLVT (average activity: 74 kBq) and killed 5 h later. The organs were collected, washed, weighed and their radioactivity was measured in a gamma-ray detector with well-counter geometry ([…], Milan, Italy) together with standards of the injection mixture. Activity was expressed as the percentage of the injected dose (%ID) g^-1 of tissue, and the uptake ratios of tumour, blood, kidney and liver were calculated. [table]

human V2 receptor = molecular target: T2, human V2 receptor (Homo sapiens, UniProt P30518); test: Competition binding, [3H]-AVP displacement, membranes of transfected COS7 cells
T2 construct: expressed in transfected cells; host or cells: COS7 (monkey kidney), transient electroporation
T2 sequence (P30518 whole entry): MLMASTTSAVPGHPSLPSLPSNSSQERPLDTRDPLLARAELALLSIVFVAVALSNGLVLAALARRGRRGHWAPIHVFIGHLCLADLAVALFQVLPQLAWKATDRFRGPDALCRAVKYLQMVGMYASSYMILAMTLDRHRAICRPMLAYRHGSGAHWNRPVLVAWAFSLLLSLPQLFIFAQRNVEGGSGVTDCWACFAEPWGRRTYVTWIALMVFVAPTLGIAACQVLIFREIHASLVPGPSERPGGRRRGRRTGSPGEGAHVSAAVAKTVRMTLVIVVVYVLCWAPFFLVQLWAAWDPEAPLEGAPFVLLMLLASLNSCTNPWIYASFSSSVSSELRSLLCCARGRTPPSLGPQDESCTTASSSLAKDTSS
Method: (§2) To determine the LVT, dLVT and DOTA-dLVT affinity constants in comparison with OT, heterologous competition experiments were performed on membranes prepared from monkey kidney COS7 cells transiently transfected by means of electroporation with human OTR, V1a, V2 and V1b cDNAs as previously described ([Chini et al, 1995a]). Briefly, the transfected cells were homogenised with a Dounce glass apparatus, washed twice, and resuspended in binding buffer (50 mM Tris HCl, 5 mM MgCl, pH 7.4). Between 5 and 10 μg of membrane proteins were incubated with a fixed concentration of [^3H]OT (1–2 nM) for 30 min at 30°C in the presence of increasing concentrations of unlabelled peptides. Nonspecific binding was determined in the presence of 1 μM OT. Bound and free radioactivity were separated by filtration over Whatman GF/C filters presoaked in 10 mg ml^−1 BSA. The binding isotherms were analysed using GraphPad Prism.
(§3) Figure 3 Binding of LVT-derived peptides to human OT/AVP receptor subtypes. (A) Comparison of OT and DOTA-dLVT affinity for the human OTR. Competition experiments were performed using membrane preparations of COS7 cells transiently transfected with the wild-type OTR. [^3H]-OT was used at a concentration of 1–2 nM, and nonspecific binding was determined in the presence of […] OT. Data are expressed as the percentage of bound [^3H]-OT in the absence of cold competitor. The curves are representative of three independent assays performed in triplicate. (B) [^111In]-DOTA-dLVT saturation binding assay. The affinity of [^111In]-DOTA-dLVT for the human OTR was measured by incubating increasing amounts of labelled peptide to membrane preparations of COS7 cells transiently transfected with the wild-type OTR. The curve is representative of two independent assays performed in triplicate. (C) Receptor selectivity profile of DOTA-dLVT. Competition experiments were performed using membrane preparations of COS7 cells transiently transfected with the wild-type human OTR, and V1a, V1b and V2 receptors. The membrane preparations of OTR-expressing cells were incubated in the presence of a constant amount of ^3[H]OT (1–2 nM), and nonspecific binding was determined in the presence of 100 μM OT. The membrane preparations of cells expressing V1a, V1b and V2 receptors were incubated in the presence of a constant amount of ^3[H]AVP (2–4 nM), and nonspecific binding was determined in the presence of 100 μM AVP. The data are expressed as percentages of bound [^3H]-ligand in the absence of cold competitor. Each curve is the mean of triplicate determinations of a single representative experiment.

human V1b receptor = molecular target: T3, human V1b receptor (Homo sapiens, UniProt P47901); test: as above
T3 construct: expressed in transfected cells; host or cells: COS7 (monkey kidney), transient electroporation
T3 sequence (P47901 1-424): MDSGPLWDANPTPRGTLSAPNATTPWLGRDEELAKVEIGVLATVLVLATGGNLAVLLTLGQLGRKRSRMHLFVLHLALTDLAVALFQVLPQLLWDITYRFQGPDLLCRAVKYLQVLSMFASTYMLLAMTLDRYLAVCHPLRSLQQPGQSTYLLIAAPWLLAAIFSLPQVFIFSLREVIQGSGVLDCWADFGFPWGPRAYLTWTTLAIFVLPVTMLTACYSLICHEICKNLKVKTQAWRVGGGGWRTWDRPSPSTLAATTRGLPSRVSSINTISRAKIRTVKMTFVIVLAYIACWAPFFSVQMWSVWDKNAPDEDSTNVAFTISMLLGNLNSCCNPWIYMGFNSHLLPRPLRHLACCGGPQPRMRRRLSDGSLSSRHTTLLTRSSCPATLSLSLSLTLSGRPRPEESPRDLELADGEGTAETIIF
Method: as §2, §3

human V1a receptor = molecular target: T4, human V1a receptor (Homo sapiens, UniProt P37288); test: as above
T4 construct: expressed in transfected cells; host or cells: COS7 (monkey kidney), transient electroporation
T4 sequence (P37288 whole entry): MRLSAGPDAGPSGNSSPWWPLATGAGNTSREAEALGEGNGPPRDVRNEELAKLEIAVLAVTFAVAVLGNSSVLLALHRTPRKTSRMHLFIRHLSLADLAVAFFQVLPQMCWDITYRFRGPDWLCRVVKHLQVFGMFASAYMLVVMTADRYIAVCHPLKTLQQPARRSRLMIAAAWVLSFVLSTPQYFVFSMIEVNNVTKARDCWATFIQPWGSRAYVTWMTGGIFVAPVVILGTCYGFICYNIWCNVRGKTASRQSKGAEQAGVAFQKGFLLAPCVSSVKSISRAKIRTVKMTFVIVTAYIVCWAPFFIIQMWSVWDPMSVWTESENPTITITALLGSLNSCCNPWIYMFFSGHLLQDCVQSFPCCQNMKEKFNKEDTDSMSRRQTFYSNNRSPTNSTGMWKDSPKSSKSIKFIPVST
Method: as §2, §3

human OTR fused to EGFP = molecular target: T5, human OTR fused to EGFP (Homo sapiens, UniProt P30559); test: Peptide-induced receptor internalisation, confocal microscopy, HEK293 cells; assay type: cell-based; conditions: peptide 10^−6 M
T5 construct: expressed in transfected cells; host or cells: HEK293, stably transfected
T5 sequence (P30559 1-389): T1 sequence (P30559 1-389)
Method: HEK293 cells stably transfected with the human OTR fused to EGFP were grown in six-well dishes, washed twice in serum-free medium, and left to equilibrate for 30 min at 37°C. Peptides were then added at a final concentration of 10^−6 M. At fixed time intervals (5, 15, 30 and 60 min), the cells were washed twice with 10 mM sodium phosphate buffer, pH 7.4, containing 150 mM NaCl (LS buffer), fixed for 20 min at room temperature with 4% (w v^−1) paraformaldehyde, and mounted on glass slides with 90% (v v^−1) glycerol in PBS. The slides were observed under an MRC1024 BioRad confocal microscope.
To assess whether LVT, dLVT and DOTA-dLVT behave like OT to induce receptor internalisation, we applied them to HEK293 cells stably expressing a human OTR C-terminally tagged with the green fluorescent protein EGFP ([Guzzi et al, 2002]; [Rimoldi et al, 2003]).
Figure 4 Laser-scanning confocal microscopy analysis of peptide-induced receptor internalisation. Receptor internalisation was investigated in HEK293 cells stably transfected with the human OTR bearing the EGFP fused at its C-terminus. The cells were grown on coverslips and incubated in serum-free medium for 30 min (Bas), after which the peptides were added at a final concentration of 10^−6 M and the coverslips were fixed at 1, 5, 15, 30 and 60 min.

human OTR [2] = molecular target: T1, human OTR; test: Heterologous competition binding, [3H]-OT displacement, membranes of transfected COS7 cells
Method: as §2
LVT, dLVT and DOTA-dLVT affinities for the human OTR were determined by means of heterologous competition experiments on membranes prepared from transiently transfected COS7 cells using [^3H]-OT as radioligand.
as §1, with “Competition experiments were performed using membrane preparations of COS7 cells transiently transfected with the wild-type OTR.” left out, “The curves are representative of three independent assays performed in triplicate. (B) [^111In]-DOTA-dLVT saturation binding assay.” left out, “OTR.” for “OTR. The curve is representative of two independent assays performed in triplicate.”, “AVP.” for “AVP. The data are expressed as percentages of bound [^3H]-ligand in the absence of cold competitor.”

[3] = displacement of [3H]-AVP, mean±s.e. of three experiments

Kd (human OTR [1]) [µM]	decrease in binding affinity at V2 receptor relative to human OTR (human V2 receptor) [fold]	Ki (human V2 receptor; [3]) [µM]	lower affinity at V1b receptor relative to human OTR (human V1b receptor) [fold]	Ki (human V1b receptor; [3]) [µM]	lower affinity at V1a receptor relative to human OTR (human V1a receptor) [fold]	Ki (human V1a receptor; [3]) [µM]	time after application at which punctate fluorescence (endocytotic vesicles) is seen (human OTR fused to EGFP) [min]	enhancement of affinity for the hOTR by addition of DOTA group at position 8 of dLVT (human OTR [2]; compared to dLVT (to both OT and dLVT))	Ki (human OTR [2]; displacement of [3H]-OT, mean±s.e. of three experiments) [µM]	Structure (SMILES)	tissue to tissue ratio at 5 h (OTR+ TS/A tumours; Tumour/kidney ratio)	tissue to tissue ratio at 5 h (OTR+ TS/A tumours; Tumour/liver ratio)	Tumour/blood ratio (OTR+ TS/A tumours)	decrease in uptake when TS/A tumours were blocked with 50 μg of cold OT (OTR+ TS/A tumours)	receptor internalisation (result in words) (human OTR fused to EGFP; up to 60 min)
0.0045	–	–	–	–	–	–	–	–	–	CC[C@H](C)[C@@H]1NC(=O)[C@H](Cc2ccc(O)cc2)NC(=O)CCSSC[C@@H](C(=O)N2CCC[C@H]2C(=O)N[C@@H](CCCCNC(=O)CN2CCN(CC(=O)O)CCN(CC(=O)O)CCN(CC(=O)O)CC2)C(=O)NCC(N)=O)NC(=O)[C@H](CC(N)=O)NC(=O)[C@H](CCC(N)=O)NC1=O [[^111In]-DOTA-dLVT, metal not drawn] ([Mpa]YIQNCPK(DOTA)G-NH2; disulfide 1-6)	0.06	1.42	7.58	three-fold decrease	–
–	≥ 300	3.56 ± 0.28	≥ 300	0.64 ± 0.177	≥ 300	0.37 ± 0.058	5	2–3 fold	0.00121 ± 0.000199	CC[C@H](C)[C@@H]1NC(=O)[C@H](Cc2ccc(O)cc2)NC(=O)CCSSC[C@@H](C(=O)N2CCC[C@H]2C(=O)N[C@@H](CCCCNC(=O)CN2CCN(CC(=O)O)CCN(CC(=O)O)CCN(CC(=O)O)CC2)C(=O)NCC(N)=O)NC(=O)[C@H](CC(N)=O)NC(=O)[C@H](CCC(N)=O)NC1=O [DOTA-dLVT] ([Mpa]YIQNCPK(DOTA)G-NH2; disulfide 1-6)	–	–	–	–	capable of inducing a persistent internalisation; also recorded: rapid and persistent receptor internalisation
